Activity calls are given as the source filed them.
Key:
Format in all cases: functional, cell-based
HL-60 = experiment: Cytotoxicity against human HL60 cells
K562 = experiment: Cytotoxicity against human K562 cells
SW480 = experiment: Cytotoxicity against human SW480 cells
KB = experiment: Cytotoxicity against human KB cells
HT-29 = experiment: Cytotoxicity against human HT-29 cells
HCT-116 = experiment: Cytotoxicity against human HCT116 cells

Measured: Activity

COC(=O)c1c2ccoc3c-2c2c1C(=O)[C@]1(O)C[C@@]4(O)N(C[C@@H](CC3)[C@@]24C)C[C@H]1C
inactive: all assays above

COC(=O)c1c2ccoc3c-2c2c1C(=O)[C@]1(O)CC4(CC(C)=O)N(C[C@@H](CC3)[C@@]24C)C[C@H]1C
inactive: all assays above

C[C@@H]1CN2C3[C@@H]4CC[C@@]35CCC[C@H]5[C@@]3(CCC(=O)O)[C@H]2[C@]1(O)CC[C@@]43C
inactive: all assays above

CC(C)[C@H]1CC[C@@]2(C)[C@H]3C[C@@H]4[C@H]5CCC[C@@]4(O)[C@@]2(CCC(=O)O)[C@@H]1N5C3
inactive: all assays above
